The target of data set [1] is T1, CFTR-mediated chloride transport in human intestinal epithelial enteroid cells (Homo sapiens, UniProt P13569). In words: Membrane potential dye, Enteroid Assay A. It counts as cell-based. Particulars: for Ent. A Max Activity: % of chloride transport of triple combination control: 3 μM (S)-N-((6-aminopyridin-2-yl)sulfonyl)-6-(3-fluoro-5-isobutoxyphenyl)-2-(2,2,4-trimethylpyrrolidin-1-yl)nicotinamide, 3 μM tezacaftor, 300 nM acute ivacaftor; for EC50: enteroid cells, 18-24 hours incubation, acute 10 μM forskolin and 300 nM ivacaftor, read-out: Ent. A EC50. How it is done:
(§1) Base medium (ADF+++) consisted of Advanced DMEM/Ham's F12, 2 mM Glutamax, 10 mM HEPES, […] penicillin/streptomycin.
(§2) Intestinal enteroid maintenance medium (IEMM) consisted of ADF+++, 1×B27 supplement, 1×N2 supplement, 1.25 mM N-acetyl cysteine, 10 mM Nicotinamide, 50 ng/mL hEGF, 10 nM Gastrin, 1 μg/mL hR-spondin-1, 100 ng/mL hNoggin, TGF-b type 1 inhibitor A-83-01, 100 μg/mL Primocin, 10 μM P38 MAPK inhibitor SB202190.
(§3) Bath 1 Buffer consisted of 1 mM MgCl2, 160 mM NaCl, 4.5 mM KCl, 10 mM HEPES, 10 mM Glucose, 2 mM CaCl2).
(§4) Chloride Free Buffer consisted of 1 mM Magnesium Gluconate, 2 mM Calcium Gluconate, 4.5 mM Potassium Gluconate, 160 mM Sodium Gluconate, 10 mM HEPES, 10 mM Glucose.
(§5) BathI Dye Solution consisted of Bath 1 Buffer, 0.04% Pluronic F127, 20 μM Methyl Oxonol, 30 μM CaCCinh-A01, 30 μM Chicago Sky Blue.
(§6) Chloride Free Dye Solution consisted of Chloride Free Buffer, 0.04% Pluronic F127, 20 μM Methyl Oxonol, 30 μM CaCCinh-A01, 30 μM Chicago Sky Blue.
(§7) Chloride Free Dye Stimulation Solution consisted of Chloride Free Dye Solution, 10 μM forskolin, 100 μM IBMX, and 300 nM Compound III.
(§8) Human intestinal epithelial enteroid cells were obtained from the Hubrecht Institute for Developmental Biology and Stem Cell Research, Utrecht, The Netherlands and expanded in T-Flasks as previously described (Dekkers J F, Wiegerinck C L, de Jonge H R, Bronsveld I, Janssens H M, de Winter-de Groot K M, Brandsma A M, de Jong N W M, Bijvelds M J C, Scholte B J, Nieuwenhuis E E S, van den Brink S, Clevers H, van der Ent C K, Middendorp S and M Beekman J M. A functional CFTR assay using primary cystic fibrosis intestinal organoids. Nat Med. 2013 July; 19(7):939-45.).
(§9) Cells were recovered in cell recovery solution, collected by centrifugation at 650 rpm for 5 minutes at 4° C., resuspended in TrypLE and incubated for 5 minutes at 37° C. Cells were then collected by centrifugation at 650 rpm for 5 minutes at 4° C. and resuspended in IEMM containing 10 μM ROCK inhibitor (RI). The cell suspension was passed through a 40 μm cell strainer and resuspended at 1×10^6 cells/mL in IEMM containing 10 μM RI. Cells were seeded at 5000 cells/well into multi-well plates and incubated for overnight at 37° C., 95% humidity and 5% CO2 prior to assay.
(§10) Enteroid cells were incubated with test compound in IEMM for 18-24 hours at 37° C., 95% humidity and 5% C02. […] Briefly, cells were washed 5 times in Bath 1 Buffer. Bath 1 Dye Solution was added, and the cells were incubated for 25 minutes at room temperature. Following dye incubation, cells were washed 3 times in Chloride Free Dye Solution. Chloride transport was initiated by addition of Chloride Free Dye Stimulation Solution and the fluorescence signal was read for 15 minutes. […] Chloride transport was then expressed as a percentage of the chloride transport following treatment with 3 μM (S)—N-((6-aminopyridin-2-yl)sulfonyl)-6-(3-fluoro-5-isobutoxyphenyl)-2-(2,2,4-trimethylpyrrolidin-1-yl)nicotinamide, 3 μM (R)-1-(2,2-difluorobenzo[d][1,3]dioxol-5-yl)-N-(1-(2,3-dihydroxypropyl)-6-fluoro-2-(1-hydroxy-2-methylpropan-2-yl)-1H-indol-5-yl)cyclopropanecarboxamide and 300 nM acute N-[2,4-bis(1,1-dimethylethyl)-5-hydroxyphenyl]-1,4-dihydro-4-oxoquinoline-3-carboxamide triple combination control (% Activity).

The conditions of data set [2]: 13-membered ring, HATU/DIEA, 25.0 °C.
Data set [3] concerns the target T1, CFTR-mediated chloride transport in human intestinal epithelial enteroid cells. In words: Membrane potential dye, Enteroid Assay B. It counts as cell-based. Particulars: for Ent. B Max Activity: % of chloride transport of triple combination control: 1 μM (14S)-8-[3-(2-{Dispiro[2.0.2.1]heptan-7-yl}ethoxy)-1H-pyrazol-1-yl]-12,12-dimethyl-...-2,2,4-trione, 3 μM tezacaftor, 300 nM acute ivacaftor; for EC50: enteroid cells, 18-24 hours incubation, acute 10 μM forskolin and 300 nM ivacaftor, read-out: Ent. B EC50. How it is done:
as §1, §2, §3, §4, §5, §6, §7, §8, §9
as §10, with “95% humidity,” for “95% humidity”, “was added” for “was added,”, “with 1” for “with 3”, “μM (14S)-8-[3-(2-{Dispiro[2.0.2.1]heptan-7-yl}ethoxy)-1H-pyrazol-1-yl]-12,12-dimethyl-2λ^6-thia-3,9,11,18,23-pentaazatetracyclo[17.3.1.111,14.05,10]tetracosa-1(22),5,7,9,19(23),20-hexaene-2,2,4-trione,” for “μM (S)—N-((6-aminopyridin-2-yl)sulfonyl)-6-(3-fluoro-5-isobutoxyphenyl)-2-(2,2,4-trimethylpyrrolidin-1-yl)nicotinamide,”

The results in this text go back to patent publication US12612416B2, “Modulators of cystic fibrosis transmembrane conductance regulator” (VERTEX PHARMACEUTICALS INCORPORATED, priority 2020, dated 2026).

Where two headings read alike, the source gives them in different places.

T1 sequence (P13569 with tags, fused parts or gaps DEL508-508): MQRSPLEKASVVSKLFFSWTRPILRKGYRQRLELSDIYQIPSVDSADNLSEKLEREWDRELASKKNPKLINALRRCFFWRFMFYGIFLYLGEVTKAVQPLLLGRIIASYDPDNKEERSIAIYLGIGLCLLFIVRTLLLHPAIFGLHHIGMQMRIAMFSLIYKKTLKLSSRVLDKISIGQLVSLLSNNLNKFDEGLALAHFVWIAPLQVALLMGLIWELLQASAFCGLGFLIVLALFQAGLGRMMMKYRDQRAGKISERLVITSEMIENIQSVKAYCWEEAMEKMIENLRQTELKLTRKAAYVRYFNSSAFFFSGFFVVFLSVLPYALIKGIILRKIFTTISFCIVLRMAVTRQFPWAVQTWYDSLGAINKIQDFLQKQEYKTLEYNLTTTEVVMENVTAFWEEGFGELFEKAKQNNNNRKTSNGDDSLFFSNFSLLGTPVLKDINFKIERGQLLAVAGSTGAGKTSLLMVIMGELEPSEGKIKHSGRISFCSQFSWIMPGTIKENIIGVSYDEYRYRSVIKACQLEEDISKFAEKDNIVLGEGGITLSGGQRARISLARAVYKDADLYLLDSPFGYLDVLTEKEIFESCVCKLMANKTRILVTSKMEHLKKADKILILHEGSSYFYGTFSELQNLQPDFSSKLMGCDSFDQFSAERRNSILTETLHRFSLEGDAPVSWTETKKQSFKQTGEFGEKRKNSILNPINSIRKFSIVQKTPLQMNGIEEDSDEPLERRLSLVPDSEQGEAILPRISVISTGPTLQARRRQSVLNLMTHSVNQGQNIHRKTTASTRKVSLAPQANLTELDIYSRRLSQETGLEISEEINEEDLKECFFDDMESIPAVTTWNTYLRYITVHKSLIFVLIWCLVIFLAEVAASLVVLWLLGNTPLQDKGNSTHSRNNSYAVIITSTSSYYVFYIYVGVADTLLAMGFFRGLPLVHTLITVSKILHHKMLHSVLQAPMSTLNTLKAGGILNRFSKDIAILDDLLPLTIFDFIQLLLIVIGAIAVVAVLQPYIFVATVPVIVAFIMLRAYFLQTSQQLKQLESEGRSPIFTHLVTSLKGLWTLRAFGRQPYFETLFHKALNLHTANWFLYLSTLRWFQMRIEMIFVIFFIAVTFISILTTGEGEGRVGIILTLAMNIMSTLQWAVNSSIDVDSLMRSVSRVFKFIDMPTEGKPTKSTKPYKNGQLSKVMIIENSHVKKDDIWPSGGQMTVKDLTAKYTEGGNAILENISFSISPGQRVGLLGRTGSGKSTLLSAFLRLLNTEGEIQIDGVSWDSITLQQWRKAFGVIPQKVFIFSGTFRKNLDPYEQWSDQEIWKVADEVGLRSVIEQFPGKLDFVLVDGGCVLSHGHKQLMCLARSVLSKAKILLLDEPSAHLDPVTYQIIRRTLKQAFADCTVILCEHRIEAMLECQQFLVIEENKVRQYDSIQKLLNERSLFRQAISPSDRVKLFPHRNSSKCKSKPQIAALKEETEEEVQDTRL

A word on the EC50: it is the concentration giving half of the maximal effect. As to `Cc1cccc(C)c1-c1cc2nc(n1)NS(=O)(=O)c1cccc(c1)C(=O)OCC[C@@H](c1ccccc1)N2` [Compound 33], in data set [1], the “Ent. A Max Activity” value is on record as “+++ (+++ is >60%)” and the EC50 fell in the range of 1000 to 3000 nM.

Take `Cc1cccc(C)c1-c1cc2nc(n1)NS(=O)(=O)c1cccc(c1)C(=O)N(C1CC3(CC3)C1)CCC2C` (centres unmarked) [Compound 11, 6-(2,6-dimethylphenyl)-9-methyl-2,2-dioxo-12-spiro[2.3]hexan-5-yl-2λ^6-thia-3,5,12,19-tetrazatricyclo[12.3.1.14,8]nonadeca-1(18),4(19),5,7,14,16-hexaen-13-one]: the ring closure, yield after HPLC in data set [2] (from Cc1cccc(C)c1-c1cc(C(C)CCNC2CC3(CC3)C2)nc(NS(=O)(=O)c2cccc(C(=O)O)c2)n1, amide bond, NMP, 20.1 mM, 16.0 h) worked out at 86%. Further, in data set [3], the “Ent. B Max Activity” value was “+++ (+++ is >60%)” and the EC50 fell in the range of 1000 to 3000 nM.

`Cc1cccc(C)c1-c1cc2nc(n1)NS(=O)(=O)c1cccc(c1)C(=O)N(C1CC3(CC3)C1)[C@H](CC(C)C)CC2` [Compound 6, (11S)-6-(2,6-Dimethylphenyl)-11-isobutyl-2,2-dioxo-12-spiro[2.3]hexan-5-yl-2 λ6-thia-3,5,12,19-tetrazatricyclo[12.3.1.14,8]nonadeca-1(18),4(19),5,7,14,16-hexaen-13-one]: the ring closure, yield after HPLC in data set [2] (from Cc1cccc(C)c1-c1cc(CC[C@@H](CC(C)C)NC2CC3(CC3)C2)nc(NS(=O)(=O)c2cccc(C(=O)O)c2)n1, amide bond, NMP, 126.6 mM, 2.0 h) worked out at 50%. For the same molecule, in data set [3], the “Ent. B Max Activity” value is given as “+++ (+++ is >60%)” and the EC50 is less than 1000 nM.

Consider `Cc1cccc(C)c1-c1cc2nc(n1)NS(=O)(=O)c1cccc(c1)C(=O)OCC(CCC1(C(F)(F)F)CC1)N2Cc1ccccc1` (centres unmarked) [Compound 31], for which, in data set [1], the “Ent. A Max Activity” value was “++ (++ is 30-60%)” and the EC50 lay in the range of 1000 to 3000 nM.

For `Cc1cccc(C)c1-c1cc2nc(n1)NS(=O)(=O)c1cccc(c1)C(=O)OCC[C@H](c1ccccc1)N2` [Compound 28], in data set [1], the “Ent. A Max Activity” value was “++ (++ is 30-60%)” and the EC50 fell in the range of 1000 to 3000 nM.

For `Cc1cccc(C)c1-c1nc2nc(c1F)CC[C@@H](CC(C)C)N(C1CC3(CC3)C1)C(=O)c1cccc(c1)S(=O)(=O)N2` [Compound 4, (11S)-6-(2,6-Dimethylphenyl)-7-fluoro-11-isobutyl-2,2-dioxo-12-spiro[2.3]hexan-5-yl-2 λ6-thia-3,5,12,19-tetrazatricyclo[12.3.1.14,8]nonadeca-1(18),4(19),5,7,14,16-hexaen-13-one], the ring closure, yield after HPLC in data set [2] (from Cc1cccc(C)c1-c1nc(NS(=O)(=O)c2cccc(C(=O)O)c2)nc(CC[C@@H](CC(C)C)NC2CC3(CC3)C2)c1F, amide bond, NMP, 100.9 mM, 20.0 h) came out at 30%. Moreover, in data set [3], the “Ent. B Max Activity” value is “+++ (+++ is >60%)” and the EC50 is less than 1000 nM.

Turning to `Cc1cccc(C)c1-c1cc2nc(n1)NS(=O)(=O)c1cccc(c1)C(=O)O[C@@H](C)[C@@H](CC(C)C)N2` [Compound 36], in data set [1], the “Ent. A Max Activity” value was “+ (+ is <30%)”.

In data set [2] (from Cc1cccc(C)c1-c1nc(NS(=O)(=O)c2cccc(C(=O)O)c2)nc(OCCN)c1C, ester bond, DMF, 50.7 mM), `Cc1cccc(C)c1-c1nc2nc(c1C)NCCOC(=O)c1cccc(c1)S(=O)(=O)N2` [Compound 24, 6-(2,6-dimethylphenyl)-7-methyl-12-oxa-2 λ6-thia-3,5,9,19-tetraazatricyclo[12.3.1.14,8]nonadeca-1(18),4,6,8(19),14,16-hexaene-2,2,13-trione] came in with a ring closure, yield after HPLC of 23%. Further, in data set [3], the “Ent. B Max Activity” value is listed as “+ (+ is <30%)”.

With `Cc1cccc(C)c1-c1cc2nc(n1)NS(=O)(=O)c1cccc(c1)C(=O)OCC(C)(C)CN2` [Compound 34], the “Ent. A Max Activity” value in data set [1] was “+ (+ is <30%)”.

In turn, `Cc1cccc(C)c1-c1cc2cc(n1)NS(=O)(=O)c1cccc(c1)C(=O)N(C1CC3(CC3)C1)[C@H](CC(C)C)CC2` [Compound 3, (11S)-6-(2,6-Dimethylphenyl)-11-isobutyl-2,2-dioxo-12-spiro[2.3]hexan-5-yl-2 λ6-thia-3,5,12-triazatricyclo[12.3.1.14,8]nonadeca-1(18),4(19),5,7,14,16-hexaen-13-one] yielded a ring closure, yield after HPLC in data set [2] (from Cc1cccc(C)c1-c1cc(CC[C@@H](CC(C)C)NC2CC3(CC3)C2)cc(NS(=O)(=O)c2cccc(C(=O)O)c2)n1, amide bond, DMF, 26.7 mM, 0.25 h) of 19%. Also, in data set [3], the “Ent. B Max Activity” value was “+++ (+++ is >60%)” and the EC50 was less than 1000 nM.

For `Cc1cccc(C)c1-c1cc2nc(n1)NS(=O)(=O)c1cccc(c1)C(=O)N(C1CC3(CC3)C1)[C@H](CC1(C(F)(F)F)CC1)CC2` [Compound 7, (11S)-6-(2,6-Dimethylphenyl)-2,2-dioxo-12-spiro[2.3]hexan-5-yl-11-[[1-(trifluoromethyl)cyclopropyl]methyl]-2 λ6-thia-3,5,12,19-tetrazatricyclo [12.3.1.14,8]nonadeca-1(18),4(19),5,7,14,16-hexaen-13-one], the ring closure, yield after HPLC in data set [2] (from Cc1cccc(C)c1-c1cc(CC[C@@H](CC2(C(F)(F)F)CC2)NC2CC3(CC3)C2)nc(NS(=O)(=O)c2cccc(C(=O)O)c2)n1, amide bond, NMP, 26.8 mM, 16.0 h) turned out to be 22%. For the same molecule, in data set [3], the “Ent. B Max Activity” value is recorded as “+++ (+++ is >60%)” and the EC50 is less than 1000 nM.

With `Cc1cccc(C)c1-c1cc2nc(n1)NS(=O)(=O)c1cccc(c1)C(=O)OCC(CCC1(C(F)(F)F)CC1)N2CCC1CCOCC1` (centres unmarked) [Compound 26, 6-(2,6-dimethylphenyl)-2,2-dioxo-9-(2-tetrahydropyran-4-ylethyl)-10-[2-[1-(trifluoromethyl)cyclopropyl]ethyl]-12-oxa-2λ6-thia-3,5,9,19-tetrazatricyclo[12.3.1.14,8]nonadeca-1(18),4(19),5,7,14,16-hexaen-13-one], in data set [1], the “Ent. A Max Activity” value is reported as “+++ (+++ is >60%)” and the EC50 lay in the range of 1000 to 3000 nM.

Turning to `Cc1cccc(C)c1-c1cc2nc(n1)NS(=O)(=O)c1cccc(c1)C(=O)OCC(CCC1(C(F)(F)F)CC1)N2CCC(C)C` (centres unmarked) [Compound 30], the “Ent. A Max Activity” value in data set [1] was “+ (+ is <30%)”.

Take `Cc1cccc(C)c1-c1cc2nc(n1)NS(=O)(=O)c1ccccc1C(=O)O[C@H](c1ccc(C(C)(C)C)cc1)[C@@H](C)N2` [Compound 27]: the “Ent. A Max Activity” value in data set [1] is on record as “+ (+ is <30%)”.
